Some test systems named below: CAKI-1 renal; IGROV1 ovarian; SK-MEL-2 melanoma; MDA-MB-231 breast; HCT-15 colon; HCC-2998 colon; HOP-92 NSCLC; MCF7 breast; UO-31 renal; OVCAR-3 ovarian; CCRF-CEM leukemia; SF-268 CNS; MOLT-4 leukemia; HT29 colon; U251 CNS; DU-145 prostate; RPMI-8226 leukemia; SK-MEL-5 melanoma; OVCAR-4 ovarian.
Holding throughout (assay): NCI tumour cell line growth inhibition, 48 h

Experimental findings from PubChem BioAssay (NCI) are described below.

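Method: 48-hour compound exposure of cells in 96-well plates, five concentrations, linear interpolation of endpoints. The concentration for full growth arrest is given as TGI.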

Turning to `O=C1NC(=O)C(Cc2ccccc2)(c2cccnc2)N1` (stereo not given), the TGI with CAKI-1 renal, in the assay with IGROV1 ovarian, with SK-MEL-2 melanoma, in the assay on MDA-MB-231 breast, in the assay on HCT-15 colon and in the assay with HCC-2998 colon was above 100 µM each time. In addition, the TGI with HOP-92 NSCLC, with MCF7 breast, in the assay on UO-31 renal, in the assay with OVCAR-3 ovarian, in the assay on CCRF-CEM leukemia and in the assay with SF-268 CNS was above 100 µM each time. For the same compound, the TGI with MOLT-4 leukemia, in the assay on HT29 colon, with U251 CNS, in the assay on DU-145 prostate, in the assay on RPMI-8226 leukemia and in the assay on SK-MEL-5 melanoma was above 100 µM each time. For the same compound, the TGI with OVCAR-4 ovarian was above 100 µM.

Consider `CCOC(=O)C(SCCO)C(C(=O)OCC)n1cnc2c(N)ncnc21` (stereo not given), for which the TGI in the assay with CAKI-1 renal is 15.1 µM; in the assay with IGROV1 ovarian, 36.5 µM; in the assay on SK-MEL-2 melanoma, 24.4 µM; with MDA-MB-231 breast, 32.7 µM; in the assay on HCT-15 colon, 22.5 µM; in the assay on HCC-2998 colon it was 30.4 µM. Moreover, the TGI stood at 13.4 µM with HOP-92 NSCLC; 20.1 µM with MCF7 breast; 55.1 µM in the assay on UO-31 renal; 25.4 µM in the assay on OVCAR-3 ovarian; 6.39 µM in the assay on CCRF-CEM leukemia; 35.9 µM with SF-268 CNS. In addition, the TGI was 20 µM in the assay on MOLT-4 leukemia; 25.4 µM with HT29 colon; 20.4 µM in the assay on U251 CNS; above 100 µM in the assay on DU-145 prostate; 23.5 µM in the assay with RPMI-8226 leukemia; above 58 µM in the assay on SK-MEL-5 melanoma. Also, the TGI in the assay with OVCAR-4 ovarian was above 48.3 µM.

In the case of `O=C1C(=O)c2c(oc(=O)c3ccccc23)-c2ccccc21`, the TGI with CAKI-1 renal, with IGROV1 ovarian, in the assay with SK-MEL-2 melanoma, with MDA-MB-231 breast, in the assay on HCT-15 colon and in the assay on HCC-2998 colon was above 25 µM in each case. For the same compound, the TGI with HOP-92 NSCLC, in the assay with MCF7 breast, with UO-31 renal, in the assay with OVCAR-3 ovarian, in the assay on CCRF-CEM leukemia and in the assay on SF-268 CNS was above 25 µM each time. Further, the TGI in the assay with MOLT-4 leukemia, with HT29 colon, in the assay on U251 CNS, with DU-145 prostate, in the assay on RPMI-8226 leukemia and in the assay with SK-MEL-5 melanoma was above 25 µM in each case. In addition, the TGI in the assay on OVCAR-4 ovarian came out at 20.3 µM.

For the compound `COC(=O)C1=C(O)C(C(=O)OC)[C@]2(O)[C@H](C(=O)OC)[C@H]1C[C@@H](c1ccc(F)cc1)[C@H]2C(=O)OC` (stereo not given in full), the TGI in the assay with CAKI-1 renal was above 100 µM; in the assay with IGROV1 ovarian, 59.8 µM; in the assay with SK-MEL-2 melanoma, 19 µM; with MDA-MB-231 breast it was above 100 µM; in the assay with HCT-15 colon, 40.8 µM; in the assay with HCC-2998 colon, 28.7 µM. Moreover, the TGI in the assay with HOP-92 NSCLC is above 100 µM; in the assay on MCF7 breast it was above 100 µM; in the assay on UO-31 renal, 29.1 µM; in the assay on OVCAR-3 ovarian, 35.5 µM; with CCRF-CEM leukemia, 70.7 µM; with SF-268 CNS, 95 µM. For the same compound, the TGI in the assay with MOLT-4 leukemia is above 100 µM; with HT29 colon it was 34 µM; with U251 CNS, 31.9 µM; with DU-145 prostate, 67.6 µM; with RPMI-8226 leukemia, 69.7 µM; with SK-MEL-5 melanoma, 25.2 µM. Besides, the TGI in the assay with OVCAR-4 ovarian was above 100 µM.

Turning to `COc1ccc2cc(CNCCCCCCCCCCCCNCc3ccc4cc(OC)ccc4c3)ccc2c1`, the TGI in the assay on CAKI-1 renal was 47.3 µM; in the assay on IGROV1 ovarian, 29.9 µM; in the assay on SK-MEL-2 melanoma, 41.1 µM; in the assay with MDA-MB-231 breast, above 51.5 µM; in the assay on HCT-15 colon, 50.9 µM; in the assay on HCC-2998 colon it was 39.1 µM. The TGI was 47.5 µM in the assay on HOP-92 NSCLC; 31.9 µM in the assay on MCF7 breast; 35.8 µM with UO-31 renal; 37.1 µM with OVCAR-3 ovarian; above 37.4 µM with CCRF-CEM leukemia; 27.2 µM in the assay with SF-268 CNS. The TGI in the assay on MOLT-4 leukemia is above 58.9 µM; in the assay with HT29 colon, 23 µM; in the assay on U251 CNS, 43.8 µM; with DU-145 prostate, above 56.1 µM; in the assay on RPMI-8226 leukemia, 42.6 µM; with SK-MEL-5 melanoma, above 54 µM. Further, the TGI in the assay on OVCAR-4 ovarian was 41.3 µM.

For `CN(C)c1ccc(/C=N\NC(=O)c2ccccc2Nc2ccccc2C(=O)N/N=C/c2ccc(N(C)C)cc2)cc1`, the TGI in the assay on CAKI-1 renal is above 100 µM; in the assay with IGROV1 ovarian, above 100 µM; in the assay on SK-MEL-2 melanoma, above 100 µM; in the assay on MDA-MB-231 breast it was 67.8 µM; in the assay with HCT-15 colon, above 100 µM; with HCC-2998 colon, above 100 µM. Also, the TGI with HOP-92 NSCLC, in the assay on MCF7 breast, in the assay with UO-31 renal, in the assay with OVCAR-3 ovarian, with CCRF-CEM leukemia and with SF-268 CNS was above 100 µM throughout. Also, the TGI with MOLT-4 leukemia, in the assay with HT29 colon, with U251 CNS, in the assay with DU-145 prostate, in the assay with RPMI-8226 leukemia and with SK-MEL-5 melanoma was above 100 µM in each case. In the assay on OVCAR-4 ovarian, the TGI is above 100 µM.

Turning to `Cc1cc([C@H](C#N)c2nc3ccccc3[nH]2)nc(Cl)n1`, the TGI in the assay with CAKI-1 renal is above 100 µM; with IGROV1 ovarian it was above 100 µM; in the assay with SK-MEL-2 melanoma, above 100 µM; with MDA-MB-231 breast, above 100 µM; in the assay on HCT-15 colon, above 100 µM; in the assay on HCC-2998 colon, 42.8 µM. Moreover, the TGI in the assay with HOP-92 NSCLC, in the assay on MCF7 breast, in the assay with UO-31 renal, in the assay with CCRF-CEM leukemia, in the assay with SF-268 CNS and with MOLT-4 leukemia was above 100 µM in each case. For the same compound, the TGI in the assay with HT29 colon, with U251 CNS, with DU-145 prostate, with RPMI-8226 leukemia, in the assay on SK-MEL-5 melanoma and in the assay on OVCAR-4 ovarian was above 100 µM in each case.

As to `COC(=O)c1cc2c(o1)Sc1ccccc1NC2=O`, the TGI with CAKI-1 renal, in the assay on IGROV1 ovarian, in the assay with SK-MEL-2 melanoma, in the assay with MDA-MB-231 breast, in the assay on HCT-15 colon and in the assay on HCC-2998 colon was above 100 µM in each case. The TGI in the assay with HOP-92 NSCLC, in the assay on MCF7 breast, in the assay with OVCAR-3 ovarian, in the assay with CCRF-CEM leukemia, in the assay on SF-268 CNS and in the assay on MOLT-4 leukemia was above 100 µM throughout. In addition, the TGI in the assay on HT29 colon, in the assay on U251 CNS, in the assay with DU-145 prostate, with RPMI-8226 leukemia, in the assay with SK-MEL-5 melanoma and in the assay with OVCAR-4 ovarian was above 100 µM each time.
